Conditions: a range is the spread between reports

Row | SMILES | melting point
1 | N#Cc1ccc(O)cc1 | 112 °C
2 | O=C1OC(=O)c2cc(Cl)c(Cl)cc21 | 186 to 188 °C
3 | c1ccc2c(c1)Oc1ccccc1O2 | 122 °C
4 | Nc1cccc(Cl)c1 | -10.4 to -10 °C
5 | O=C1C(=O)c2cccc3cccc1c23 | 258 to 261 °C
6 | COC(F)(F)C(Cl)Cl | -36 to -35 °C
7 | CC12CCC(C1)C(C)(C)C2O (centres undefined) | 43.5 to 48 °C
8 | NCCN1CCOCC1 | 24 to 25.6 °C
9 | Cc1cc([N+](=O)[O-])ccc1Cl | 42.5 to 43 °C
10 | O=S(=O)(c1ccc(Cl)cc1)c1ccc(Cl)cc1 | 148 to 149 °C
11 | N#C/C=C/c1ccccc1 | 19 to 22 °C
12 | O=[N+]([O-])c1ccccc1F | -8 to -6 °C
13 | COC(=O)C(Cl)(Cl)Cl | -18 to -17.5 °C
14 | O=C(Cl)N(c1ccccc1)c1ccccc1 | 83 to 84 °C
15 | CC1CC2C3CCC4=CC(=O)C=CC4(C)C3(F)C(O)CC2(C)C1(O)C(=O)CO (centres undefined) | 262 to 263 °C
16 | COC(=O)CCCCC(=O)OC | 8 to 10.3 °C
17 | NCCCCCCO | 56 to 57 °C
18 | N#CCc1ccc(Cl)cc1 | 30 to 31 °C
19 | C=CCCCCCCCCCCCCCC | 4 to 4.1 °C
20 | CC1(C)CC(=O)CC(=O)C1 | 148 °C
21 | ClCCOCCOCCCl | -32 to -31.5 °C
22 | CCCCCCCCCCCCCCCCCC(=O)OCC | 33 to 35 °C
23 | CCCCCCOC(C)=O | -80.9 to -80 °C
24 | ClC(Cl)C(Cl)(Cl)Cl | -29 to -28.8 °C
25 | CC1CCCCC1 | -127 to -126 °C

Row | SMILES | melting point
26 | c1ccc(CCc2ccccc2)cc1 | 51 to 55 °C
27 | O=C(O)c1ccc([N+](=O)[O-])o1 | 184 to 187 °C
28 | CC(=O)c1ccc(Br)cc1 | 50.5 to 51 °C
29 | O=C(Cl)c1ccco1 | -2 to -1 °C
30 | CC1(C)COC(=O)C1O (centres undefined) | 90 to 92 °C
31 | CC=C(C)C | -134 °C
32 | BrCC(Br)(Br)CBr | 10.5 to 11 °C
33 | c1ccc(/N=N/c2ccccc2)cc1 | 67 to 69 °C
34 | N#Cc1cccc(C(=O)O)c1 | 219 to 223 °C
35 | CC(C)OC(C)C | -86.8 to -86 °C
36 | FC(F)(F)C(F)(F)F | -101 to -100 °C
37 | Cc1ccc([N+](=O)[O-])cc1C | 29 to 31 °C
38 | CCCCCCCCC | -54 to -53 °C
39 | CC(C)C1CCCC1 | -111 °C
40 | CCC(C)N (centres undefined) | -105 to -104 °C
41 | C#CCCO | -63.6 to -63 °C
42 | Oc1ccccc1Br | 5 to 5.6 °C
43 | BrCc1ccc(CBr)cc1 | 142 to 144 °C
44 | O=C(c1ccccc1)C(Cl)Cl | 20.5 to 21 °C
45 | ClC(Cl)(Cl)c1ccccc1 | -8 to -4 °C
46 | CCCCCCCCCCc1ccc(N)cc1 | 24 to 25 °C
47 | O=C(O)CCCc1ccc(N(CCCl)CCCl)cc1 | 64 to 65 °C
48 | Cc1cnccn1 | -30 to -29 °C
49 | CC[N+](=O)[O-] | -89.5 to -89 °C
50 | CC(C)OC(=O)C=CC(=O)OC(C)C | 2 to 2.1 °C

Row | SMILES | melting point
51 | O=[N+]([O-])c1cc(Cl)cc(Cl)c1 | 64 to 65.4 °C
52 | CCC#CCCCC | -104 °C
53 | CC1(C(=O)O)CCCCC1 | 37.5 to 38 °C
54 | Fc1c(F)c(F)c(C(F)(F)F)c(F)c1F | -66 to -65.6 °C
55 | c1ccc(C(c2ccccc2)(c2ccccc2)c2ccccc2)cc1 | 282 to 283 °C
56 | O=C(O)COc1ccccc1 | 98.5 to 100 °C
57 | S=C1NCCS1 | 105 to 106 °C
58 | CCBr | -119 °C
59 | NC(=O)Oc1ccccc1 | 150 to 151 °C
60 | O=C1c2ccccc2C(=O)C1c1ccccc1 | 150 °C
61 | ClC(Cl)Br | -57 to -55 °C
62 | FC(Cl)(Cl)Cl | -111 to -110 °C
63 | O=C(O)C(=Cc1ccccc1)c1ccccc1 | 171 to 172 °C
64 | CCCCCCCBr | -58 to -56 °C
65 | COP(N)(=O)SC (centres undefined) | 45 to 46 °C
66 | OCCCO | -27 to -26 °C
67 | IC(I)I | 119 to 122 °C
68 | Oc1cccc(Cl)c1 | 32 to 34 °C
69 | CC[C@H]1CC[C@H]2[C@@H]3CC[C@@H]4CCCC[C@]4(C)[C@H]3CC[C@]12C | 83.5 to 84.5 °C
70 | Brc1ccc(-c2ccccc2)cc1 | 90 to 91.5 °C
71 | C#CCCC(C)C | -125 to -124 °C
72 | NC(=S)Nc1ccccc1 | 149 to 154 °C
73 | CC12CCC(C(Br)C1=O)C2(C)C (centres undefined) | 76 to 77 °C
74 | CC(C)CC(=O)O | -33 to -29.3 °C
75 | O=[N+]([O-])c1ccc(F)c([N+](=O)[O-])c1 | 25.8 to 27 °C

Row | SMILES | melting point
76 | O=C/C=C/c1ccccc1 | -8 to -7 °C
77 | N#CCc1ccccc1 | -24 to -23.8 °C
78 | CCC(C)CC(O)CC (centres undefined) | -91.2 to -91 °C
79 | CCCCC(=O)CC | -39 to -37 °C
80 | Cc1cc(C)nc(N)n1 | 152 to 153 °C
81 | O=C(O)CCCCCCCCCCCCCCCO | 98 to 99 °C
82 | Cc1ccc(N)cc1Cl | 23 to 26 °C
83 | OCC(Cl)(Cl)Cl | 18 to 19 °C
84 | N#CC(c1ccccc1)c1ccccc1 | 74 to 74.3 °C
85 | c1ccc(CN(Cc2ccccc2)Cc2ccccc2)cc1 | 91.5 to 93 °C
86 | c1ccc(Cc2ccccn2)cc1 | 10 to 12.5 °C
87 | O=S1(=O)CC=CC1 | 64.5 to 65 °C
88 | CCCCCCCCC(C)C | -49 to -48.9 °C
89 | CCCC(C)=C(C)C | -115 °C
90 | Clc1cncc(Cl)c1 | 65 to 66 °C
91 | Cc1cc(C)[nH]n1 | 107 to 108 °C
92 | BrCCCCCCCCBr | 15.5 to 16 °C
93 | OCC(O)CO | 17.8 to 18.2 °C
94 | c1ccc(Nc2ccc(-c3ccc(Nc4ccccc4)cc3)cc2)cc1 | 247 to 248 °C
95 | O=C(Cl)c1cccc(C(=O)Cl)c1 | 43.5 to 44 °C
96 | c1ccc(-n2cccc2)cc1 | 59 to 62 °C
97 | CC(=O)Nc1ccc2c(c1)Cc1ccccc1-2 | 193 to 194 °C
98 | CN(C)C(N)=O | 180 to 184 °C

Further lines, results first:

Row | melting point | SMILES
99 | 152 to 154 °C | Cc1cc(C)c(C(=O)O)c(C)c1
100 | 82 to 86 °C | CN(C)c1cccc(O)c1
101 | 91 to 92 °C | Brc1ccc(I)cc1
102 | 223 to 224 °C | Cc1cc(C2(c3ccc(O)c(C)c3)OC(=O)c3ccccc32)ccc1O
103 | 59 to 61.5 °C | Cc1ccc(CO)cc1
104 | -15 to -14.8 °C | c1ccc2ncccc2c1
105 | 100 to 101 °C | CCOC(=O)c1ccc([N+](=O)[O-])o1
106 | 101 to 103 °C | CCCCCCCCOc1ccc(C(=O)O)cc1
107 | 17 to 18 °C | O=Cc1cccc(Cl)c1
108 | 16 to 18.5 °C | Nc1cccc(Br)c1
109 | 149 to 152 °C | O=C(O)Cc1ccc(O)cc1
110 | 237 to 238 °C | O=C(O)c1cccc(Cl)c1[N+](=O)[O-]
111 | 56.5 to 58 °C | COc1cc(N)ccc1C
112 | -9 to -6.6 °C | Cc1cncc(C)c1
113 | 36.5 to 39 °C | CC(C)(C)c1cccc(C(C)(C)C)c1O
114 | 210 to 212 °C | O=C(O)c1cccc([N+](=O)[O-])c1C(=O)O
115 | 31.5 to 32 °C | Cc1ccc(C(C)C)cc2c(C)ccc1-2
116 | 57.5 to 59 °C | COc1ccc(CCCC(=O)O)cc1
117 | 40 to 41 °C | COc1ccc(C(C)=O)c(OC)c1
118 | 65 to 66 °C | C=Cc1ccc2ccccc2c1
119 | 94.5 to 95 °C | O=C(C(=O)c1ccccc1)c1ccccc1
120 | 42 to 42.8 °C | COc1cccc(O)c1O
121 | -43.5 to -43 °C | CCc1ccc(Br)cc1
122 | 192 to 194 °C | O=C(O)c1cc2ccccc2o1

Row | melting point | SMILES
123 | 61 to 62 °C | O=C(O)CSCc1ccccc1
124 | 59 to 59.5 °C | OCc1ccc(Cl)cc1Cl
125 | 152 to 153 °C | CNc1ccc([N+](=O)[O-])cc1
126 | 10 to 13.7 °C | Oc1cccc(F)c1
127 | 43 to 46 °C | O=C(O)Cc1cccc(F)c1
128 | 168 to 169 °C | Cc1cc(C)c(CC(=O)O)c(C)c1
129 | 83 to 84 °C | Nc1ccc(Oc2ccccc2)cc1
130 | 100 to 101 °C | COc1ccc(C(=O)O)c(OC)c1OC
131 | 66 to 69 °C | OC(c1ccccc1)c1ccccc1
132 | 83 to 84 °C | COc1ccc2ccccc2c1C=O
133 | 160 to 161 °C | O=C(O)Cc1ccc(-c2ccccc2)cc1
134 | 96 to 97 °C | CCCOC(=O)c1ccc(O)cc1
135 | 76 to 76.5 °C | Cc1ccc2oc(=O)ccc2c1
136 | -13 to -12.3 °C | Clc1ccccc1Br
137 | 30 to 35 °C | COC(=O)CS(=O)(=O)c1ccccc1
138 | 124 to 126 °C | O=C(O)c1ccccc1F
139 | 2 to 2.2 °C | CC(C)(C)c1cccc(C(C)(C)C)n1
140 | 78 to 81 °C | CC(=O)c1cccc([N+](=O)[O-])c1
141 | 54 to 56.5 °C | COc1cccc(OC)c1O
142 | 53 to 54 °C | CCC(C)(O)C#CC(C)(O)CC (centres undefined)
143 | 31 to 33.5 °C | Cc1cccnc1N
144 | 153 to 156 °C | CC(C)(c1ccc(O)cc1)c1ccc(O)cc1
145 | 81 to 82.5 °C | O=C(c1ccccc1)c1ccc(Br)cc1
146 | 120 to 121 °C | Cn1ccc(=O)n(C)c1=O

Row | melting point | SMILES
147 | 34 to 34.5 °C | CCOC(=O)c1ccco1
148 | -10 to -9.8 °C | CCC(C)(C)C(C)(C)C
149 | 70 to 75 °C | OCc1ccc(Cl)cc1
150 | -95 to -94.9 °C | CCc1ccccc1
151 | 108 to 110 °C | Nc1cccc2ncccc12
152 | 96 to 98.5 °C | CC(=O)c1cccc(N)c1
153 | 131 to 132 °C | Oc1ccccc1-c1nc2ccccc2s1
154 | -36.4 to -36 °C | CC(C)C(C)(C)C(C)(C)C
155 | 118 to 120 °C | Cc1c(O)cccc1O
156 | 131 to 132 °C | S=C=Nc1ccc(N=C=S)cc1
157 | 54 to 57 °C | COc1ccc2[nH]ccc2c1
158 | 34.8 to 36 °C | N#Cc1ccc(F)cc1
159 | 5 to 7.1 °C | Brc1ccccc1Br
160 | 58 to 59 °C | O=Cc1cccc([N+](=O)[O-])c1
161 | 220 to 221 °C | O=C(O)c1ccc(C(F)(F)F)cc1
162 | 50.8 to 53 °C | O=c1cccccc1O
163 | 4.5 to 6 °C | O=C(CO)c1ccccc1
164 | 105 to 106 °C | O=C(O)c1cccc(C(F)(F)F)c1
165 | 60 to 61 °C | O=C(c1ccccc1)c1ccccc1C(F)(F)F
166 | 161 to 163 °C | CC(C)(C)c1ccc(O)c(N)c1
167 | 59 to 63 °C | Cc1cc(O)c(C(C)C)cc1Cl
168 | 90 to 91 °C | OCCc1ccc(O)cc1
169 | 147 to 150 °C | COc1ccc(C=O)c(C(=O)O)c1OC

— a melting point compilation (Tetko et al.)
